Assay results taken from patent US20250171753A1, “PEPTIDE AND USE THEREOF IN THE PREVENTION OF THERAPY-RELATED LEUKEMIA” (UNIVERSITÄT ULM, priority 2022, published 2025).
Where no end group is shown, it is not given here.

How the values were obtained:
K562/MLL cells = experiment: Cell survival of K562/MLL cells by FSC/SSC gating in FACS; format: cell-based; settings: for effect of peptide on cell survival after doxorubicin treatment: K562/MLL nucleofected with 0-600 μg peptide per 1×10^6 cells; for effect of peptide on cell survival after doxorubicin treatment / cell survival: 2 μM doxorubicin 4 h; for cell survival: 72 h; for toxic effects toward leukemia cells (summary statement): leukemia cells after doxorubicin treatment; for toxicity of the peptide in K562/MLL cells: K562/MLL nucleofected with different peptide concentrations, 2 μM doxorubicin
Description: (§1) K562/MLL cells were divided 1:2 before the start of the experiment and transfected with the plasmid (2×10^6 cells) or nucleofected with the peptide (1×10^6 cells) on the second day. After 24 h, the cells were then treated with 2 μM doxorubicin (Uniklinik Ulm, Germany) and after 4 h incubation, the cells were centrifuged, the supernatant discarded and the cells taken up in 2 ml PBS (Gibco/Thermo Fisher Scientific). After centrifugation again, the supernatant was discarded and the cells were seeded in 2 ml of new culture medium for 72 h.
Use of the fluorescence-based assay system for recombination measurements with K562/MLL or HeLa/MLL cells with chromosomally integrated plasmid pHR-EGFP/3′EGFP-MLLbcr.fwd is described in detail in Ireno et al. 2014 and Gole et al. 2015, respectively. For the acquisition of recombination data, cells were harvested, pelleted, resuspended in PBS and then re-sedimented. The cell pellets were stored on ice and resuspended in PBS (mixed with 0.2% EDTA) only shortly before FACS measurement. This suspension was transferred to FACS tubes and the fluorescence of the cells was detected on the FACSCalibur™ (BD Biosciences, San Jose, California, USA). To achieve a separation between living and dead cells, the cell clouds were plotted linearly against FSC/SSC orientation in a dot plot diagram. Depending on cell size and granularity, the living cells were distinguished from cell debris and dead cells by placing a marker (gate) around the “living cell cloud”. Subsequently, the selected cell population was separated in another dot-plot diagram with FL-1/FL-2 alignment depending on their fluorescence properties (FL-1 for green fluorescence, FL-2 for orange intrinsic fluorescence). Depending on the approach, 150,000 to 1,000,000 living cells were analyzed. Recombination frequencies were determined from the proportion of green fluorescent cells in the living cell population.
K562/MLL cells were electroporated with these expression plasmids for the different Ku80 variants or the empty vector (control) and 24 h later treated for 4 h with the chemotherapeutic agent doxorubicin (2 μM). After washing the cells, they were cultured in fresh medium for a further 72 h. The subsequent detection of green fluorescent cells for analysis of recombination frequencies was achieved by FACS using a diagonal gate in a FL-1/FL-2 dot plot diagram. Living cells were pre-selected by FSC/SSC gating to distinguish between EGFP-positive and -negative within the living cells.
The peptides were introduced into K562/MLL cells by Nucleofector™ technology as described above. The cells were nucleofected with 0-600 μg peptide per 1×10^6 cells and treated with 2 μM doxorubicin for 4 h after 24 h. After washing, the cells were cultured for another 72 h in fresh medium. […] Subsequently, recombination frequencies were determined.
Cell survival was determined in parallel with the recombination measurements.

HeLa/MLL cells = experiment: Cell survival of HeLa/MLL cells by FSC/SSC gating in FACS; format: cell-based, human; settings: HeLa/MLL nucleofected with peptide; 0.5 μM doxorubicin 4 h; 72 h
Description: HeLa/MLL cells (0.5×10^6) were nucleofected with the peptide on the first day and split into three 6-wells for further cultivation. On the second day, the cells were treated with 0.5 μM doxorubicin for 4 h. […]. Afterwards, the medium was removed, the cells were washed with 2 ml PBS and 2 ml new medium was added. For FACS measurements, the cells were washed with PBS after 72 h of culture, 200 μl of trypsin (PAN Biotech, Aidenbach, Germany) was added and the reaction was stopped with medium. Genomic DNA was isolated without recultivation after doxorubicin treatment.
Use of the fluorescence-based assay system for recombination measurements with K562/MLL or HeLa/MLL cells with chromosomally integrated plasmid pHR-EGFP/3′EGFP-MLLbcr.fwd is described in detail in Ireno et al. 2014 and Gole et al. 2015, respectively. […] This suspension was transferred to FACS tubes and the fluorescence of the cells was detected on the FACSCalibur™ (BD Biosciences, San Jose, California, USA). […] Subsequently, the selected cell population was separated in another dot-plot diagram with FL-1/FL-2 alignment depending on their fluorescence properties (FL-1 for green fluorescence, FL-2 for orange intrinsic fluorescence). Depending on the approach, 150,000 to 1,000,000 living cells were analyzed. […]

[1] = test system: MLLbcr rearrangements in K562/MLL cells; experiment: Fluorescence-based (EGFP reconstitution) recombination assay for MLLbcr rearrangements in K562/MLL cells after doxorubicin; format: cell-based, human; settings: expression plasmid electroporated into K562/MLL; 2 μM doxorubicin 4 h after 24 h; 72 h culture; vs empty vector control set to 100%
Description: as §1
Use of the fluorescence-based assay system for recombination measurements with K562/MLL or HeLa/MLL cells with chromosomally integrated plasmid pHR-EGFP/3′EGFP-MLLbcr.fwd is described in detail in Ireno et al. 2014 and Gole et al. 2015, respectively. For the acquisition of recombination data, cells were harvested, pelleted, resuspended in PBS and then re-sedimented. The cell pellets were stored on ice and resuspended in PBS (mixed with 0.2% EDTA) only shortly before FACS measurement. This suspension was transferred to FACS tubes and the fluorescence of the cells was detected on the FACSCalibur™ (BD Biosciences, San Jose, California, USA). To achieve a separation between living and dead cells, the cell clouds were plotted linearly against FSC/SSC orientation in a dot plot diagram.

[2] = K562/MLL nucleofected with 50 μg peptide
[3] = K562/MLL nucleofected with 100 μg peptide

**Q.** `CC[C@H](C)[C@H](NC(=O)CNC(=O)[C@H](CC(=O)O)NC(=O)[C@H](CCC(N)=O)NC(=O)[C@@H](NC(=O)[C@@H](NC(=O)[C@@H](NC(=O)[C@@H](N)CCC(=O)O)[C@@H](C)CC)C(C)C)C(C)C)C(=O)N[C@H](C(=O)N[C@@H](CC(C)C)C(=O)N[C@H](C(=O)N[C@H](C(=O)N[C@@H](CCCCN)C(=O)N[C@@H](CCC(=O)O)C(=O)N[C@@H](CCC(=O)O)C(=O)N[C@@H](C)C(=O)N[C@@H](CO)C(=O)NCC(=O)N[C@@H](CO)C(=O)N[C@@H](CO)C(=O)N[C@H](C(=O)N[C@H](C(=O)N[C@@H](C)C(=O)N[C@@H](CCC(=O)O)C(=O)N[C@@H](CCC(=O)O)C(=O)N[C@@H](C)C(=O)N[C@@H](CCCCN)C(=O)N[C@@H](CCCCN)C(=O)O)[C@@H](C)O)C(C)C)[C@@H](C)O)[C@@H](C)CC)[C@@H](C)O` [Ku3] was tested. Which “effect of peptide on cell survival after doxorubicin treatment” value (K562/MLL cells) did it give?
**A.** not affected

**Q.** What about the cell survival (K562/MLL cells; [2]) of the same molecule?
**A.** not affected

**Q.** What about the cell survival (K562/MLL cells; [3]) of the same molecule?
**A.** not affected

**Q.** And the “toxic effects toward leukemia cells (summary statement)” value (K562/MLL cells)?
**A.** without exhibiting toxic effects

**Q.** And the “effect on cell survival” value (HeLa/MLL cells)?
**A.** without affecting cell survival

**Q.** Which results are given for RVLVKQKKASFEEASNQLINHIEQFL [Ku2]?
**A.** reduction of cell survival after doxorubicin treatment to (K562/MLL cells; K562/MLL nucleofected with 200-400 μg peptide): ≥ half; toxicity of the peptide in K562/MLL cells (K562/MLL cells): caused toxicities

**Q.** ASFEEASNQLINHIEQFLDTNETPYFMKSI [Ku4] was tested. Which “toxicity of the peptide in K562/MLL cells” value (K562/MLL cells) did it give?
**A.** caused toxicities

**Q.** What about the “reduction of cell survival after doxorubicin treatment to” value (K562/MLL cells; K562/MLL nucleofected with ≥300 μg peptide) of the same molecule?
**A.** ≥ half

**Q.** How did the “toxic effects toward leukemia cells (summary statement)” value (K562/MLL cells) turn out when ITKEEASGSSVTAEEAKKFLA [SEQ ID No. 4] was run?
**A.** without exhibiting toxic effects

**Q.** Which cell survival (K562/MLL cells; [3]) does the source give for “VDSTTIEKSIAEVAEEQESILKKVAGGT [scrambled peptide, reference compound]” here?
**A.** not affected

**Q.** Which “effect of peptide on cell survival after doxorubicin treatment” value (K562/MLL cells) does the source give for ITKEEASGSSVTAEEAKKFLAG [Ku1] here?
**A.** did not affect cell survival

**Q.** `COc1cccc2c1C(=O)c1c(O)c3c(c(O)c1C2=O)C[C@@](O)(C(=O)CO)C[C@@H]3O[C@H]1C[C@H](N)[C@H](O)[C@H](C)O1` [doxorubicin, reference compound] was tested. Which “cell survival after doxorubicin treatment” value (K562/MLL cells; human, 4 h, 2 μM) did it give?
**A.** 70-80%

**Q.** With “EIVVQDGITLITKAEASGSSVTAEEAKK [Ku3 mut1, reference compound]” as the molecule, how does the cell survival (K562/MLL cells; [2]) read?
**A.** not affected

B1: Ku80ct: Ku80 amino acids 592-709 fused behind the amino acids PTAKKLK of the nuclear localization signal, expressed from plasmid (protein, UniProt P13010 592-709, looked up, fragment)
chain: VNPAENFRVLVKQKKASFEEASNQLINHIEQFLDTNETPYFMKSIDCIRAFREEAIKFSEEQRFNNFLKALQEKVEIKQLNHFWEIVVQDGITLITKEEASGSSVTAEEAKKFLAPKD
modifications: N-terminal NLS peptide PTAKKLK
notes: Ku80 amino acids 592-709 fused behind the amino acids PTAKKLK of the nuclear localization signal, expressed from plasmid
**Q.** Which “MLLbcr rearrangements (recombination frequency) lowered by” value [1] does the source give for B1 here?
**A.** 45%
